Experimental data taken from patent publication US4605641A, “Synthetic vasoactive intestinal peptide analogs” (Hoffmann-La Roche Inc., priority 1984, dated 1986).
Peptide text beside a SMILES is read from it.

Tested on: guinea pig trachea smooth muscle
Assay: Bronchodilator (relaxant) effect on isolated guinea pig tracheal rings
Format: cell-based
Conditions: for Relative Potency: guinea pig trachea, relative to VIP = 100%; for EC50: guinea pig tracheal rings, relaxation as % of maximum response to VIP 10^-6 M, three tissues pooled, linear regression, read-out: EC50 (M), agonist activity, bronchodilator effect
From the text: The bronchodilatory effect of VIP analogs was studied in a model utilizing guinea pig trachea. Wasserman, M. A. et al. "Comparative In Vitro Tracheal Relaxant Effects of Porcine and Hen VIP" in Vasoactive Intestinal Peptide ed. Said, S.I., Raven Press (New York, 1982).
All tissues were taken from male albino guinea pigs weighing 400-600 g, anesthetized with urethane 2 g/kg i.p. After exsanguination the trachea was removed and divided into four ring segments (3 mm length). Each ring was suspended by two 30 guage stainless steel wires in a 10 ml jacket tissue bath and attached via 4-0 silk thread to a Grass force displacement transducer (model FT03C, Grass Instrument Co., Quincy, MA), for isometric recording of tension. The smooth muscle was bathed in modified Krebs solution of the following composition: NaCl, 120 mM; KCl, 4.7 mM; CaCl2, 2.5 mM; MgSO4.7H2 O; 1.2 mM; NaHCO3, 25 mM; KH2 PO4 monobasic, 1.2 mM; and dextrose, 10 mM. Tissue baths were maintained at 37.5° C. and constantly bubbled with 95% O2 and 5% CO2. Responses were recorded on an 8 channel and 4 channel Hewlett-Packard (model 7702B and 7754A, respectively) recorder (Hewlett Packard, Paramus, NJ). Tracheal rings were placed under a resting tension of 1.5 g which was determined to be at or near optimal in preliminary experiments. Frequent readjustments of tension were required during the 60 min. stabilization period which followed. Tissues were rinsed at 15 min. intervals.
Cumulative concentration response curves were obtained for each tissue by successive […] in the bath concentration of VIP or potential VIP agonists according to the method of VanRossum J. M., Arch. Int Pharmacodyn, 143, 299-330 (1963). Only one cummulative dose response curve was obtained on a single piece of tissue. To minimize variability between tissues, relaxant responses are expressed as a percentage of the maximum response obtainable to VIP (10^-6 M=100%) added at the end of the concentration response curve. Responses obtained from three tissues were pooled and EC50 values were determined by linear regression.

Structure (SMILES) | EC50 | Relative Potency
CCCC[C@H](NC(=O)[C@H](CCC(N)=O)NC(=O)[C@H](CCCCN)NC(=O)[C@H](CCCNC(=N)N)NC(=O)[C@H](CC(C)C)NC(=O)[C@H](CCCNC(=N)N)NC(=O)[C@@H](NC(=O)[C@H](Cc1ccc(O)cc1)NC(=O)[C@H](CC(N)=O)NC(=O)[C@H](CC(=O)O)NC(=O)[C@@H](NC(=O)[C@H](Cc1ccccc1)NC(=O)[C@@H](NC(=O)[C@H](C)NC(=O)[C@H](CC(=O)O)NC(=O)[C@H](CO)NC(=O)[C@@H](N)Cc1c[nH]cn1)C(C)C)[C@@H](C)O)[C@@H](C)O)C(=O)N[C@@H](C)C(=O)N[C@H](C(=O)N[C@@H](CCCCN)C(=O)N[C@@H](CCCCN)C(=O)N[C@@H](Cc1ccc(O)cc1)C(=O)N[C@@H](CC(C)C)C(=O)N[C@@H](CC(N)=O)C(=O)N[C@@H](CO)C(=O)N[C@H](C(=O)N[C@@H](CC(C)C)C(=O)N[C@H](C(N)=O)[C@@H](C)O)[C@@H](C)CC)C(C)C [(Nle^17, Thr^28)--VIP, (Nle^17, Thr^28)VIP] (HELM PEPTIDE1{H.S.D.A.V.F.T.D.N.Y.T.R.L.R.K.Q.[Nle].A.V.K.K.Y.L.N.S.I.L.T.[am]}$$$$V2.0) | 9.3e-09 M | 108%
CCCC[C@H](NC(=O)[C@H](CCC(N)=O)NC(=O)[C@H](CCCCN)NC(=O)[C@H](CCCNC(=N)N)NC(=O)[C@H](CC(C)C)NC(=O)[C@H](CCCNC(=N)N)NC(=O)[C@@H](NC(=O)[C@H](Cc1ccc(O)cc1)NC(=O)[C@H](CC(N)=O)NC(=O)[C@H](CC(=O)O)NC(=O)[C@@H](NC(=O)[C@H](Cc1ccccc1)NC(=O)[C@@H](NC(=O)[C@H](C)NC(=O)[C@H](CC(=O)O)NC(=O)[C@H](CO)NC(=O)[C@@H](N)Cc1c[nH]cn1)C(C)C)[C@@H](C)O)[C@@H](C)O)C(=O)N[C@@H](C)C(=O)N[C@H](C(=O)N[C@@H](CCCCN)C(=O)N[C@@H](CCCCN)C(=O)N[C@@H](Cc1ccc(O)cc1)C(=O)N[C@@H](CC(C)C)C(=O)N[C@@H](CC(N)=O)C(=O)N[C@H](C(=O)N[C@H](C(=O)N[C@@H](CC(C)C)C(=O)N[C@@H](CC(N)=O)C(N)=O)[C@@H](C)CC)[C@@H](C)O)C(C)C [(Nle^17, Thr^25)--VIP, (Nle^17, Thr^25)VIP] (HELM PEPTIDE1{H.S.D.A.V.F.T.D.N.Y.T.R.L.R.K.Q.[Nle].A.V.K.K.Y.L.N.T.I.L.N.[am]}$$$$V2.0) | 9.9e-09 M | 101%
CCCC[C@H](NC(=O)[C@H](CCC(N)=O)NC(=O)[C@H](CCCCN)NC(=O)[C@H](CCCNC(=N)N)NC(=O)[C@H](Cc1ccccc1)NC(=O)[C@H](CCCNC(=N)N)NC(=O)[C@H](CO)NC(=O)[C@H](Cc1ccc(O)cc1)NC(=O)[C@H](CC(N)=O)NC(=O)[C@H](CC(=O)O)NC(=O)[C@@H](NC(=O)[C@H](Cc1ccccc1)NC(=O)[C@@H](NC(=O)[C@H](C)NC(=O)[C@H](CC(=O)O)NC(=O)[C@H](CO)NC(=O)[C@H](Cc1c[nH]cn1)NC(C)=O)C(C)C)[C@@H](C)O)C(=O)N[C@@H](C)C(=O)N[C@H](C(=O)N[C@@H](CCCCN)C(=O)N[C@@H](CCCCN)C(=O)N[C@@H](Cc1ccc(O)cc1)C(=O)N[C@@H](CC(C)C)C(=O)N[C@@H](CC(N)=O)C(=O)N[C@@H](CO)C(=O)N[C@H](C(=O)N[C@@H](CC(C)C)C(=O)N[C@@H](CC(N)=O)C(N)=O)[C@@H](C)CC)C(C)C [Ac--(Ser^11, Phe^13, Nle^17)--VIP, Ac-(Ser^11, Phe^13, Nle^17)VIP] (HELM PEPTIDE1{[ac].H.S.D.A.V.F.T.D.N.Y.S.R.F.R.K.Q.[Nle].A.V.K.K.Y.L.N.S.I.L.N.[am]}$$$$V2.0) | 2.2e-08 M | 45%
CCCC[C@H](NC(=O)[C@H](CCC(N)=O)NC(=O)[C@H](CCCCN)NC(=O)[C@H](CCCNC(=N)N)NC(=O)[C@H](CC(C)C)NC(=O)[C@H](CCCNC(=N)N)NC(=O)[C@@H](NC(=O)[C@H](Cc1ccc(O)cc1)NC(=O)[C@H](CC(N)=O)NC(=O)[C@H](CC(=O)O)NC(=O)[C@@H](NC(=O)[C@H](Cc1ccccc1)NC(=O)[C@@H](NC(=O)[C@H](C)NC(=O)[C@H](CC(=O)O)NC(=O)[C@H](CO)NC(=O)[C@@H](N)Cc1c[nH]cn1)C(C)C)[C@@H](C)O)[C@@H](C)O)C(=O)N[C@@H](C)C(=O)N[C@H](C(=O)N[C@@H](CCCCN)C(=O)N[C@@H](CCCCN)C(=O)N[C@@H](Cc1ccc(O)cc1)C(=O)N[C@@H](CC(C)C)C(=O)N[C@H](C(=O)N[C@@H](CO)C(=O)N[C@H](C(=O)N[C@@H](CC(C)C)C(=O)N[C@@H](CC(N)=O)C(N)=O)[C@@H](C)CC)[C@@H](C)O)C(C)C [(Nle^17, Thr^24)--VIP, (Nle^17, Thr^24)VIP] (HELM PEPTIDE1{H.S.D.A.V.F.T.D.N.Y.T.R.L.R.K.Q.[Nle].A.V.K.K.Y.L.T.S.I.L.N.[am]}$$$$V2.0) | 8e-09 M | 125%

Now those with a lower EC50, led by results:

EC50 | Structure (SMILES) | Relative Potency
7e-09 M | CCCC[C@H](NC(=O)[C@H](CCC(N)=O)NC(=O)[C@H](CCCCN)NC(=O)[C@H](CCCCN)NC(=O)[C@H](CC(C)C)NC(=O)[C@H](CCCCN)NC(=O)[C@@H](NC(=O)[C@H](Cc1ccc(O)cc1)NC(=O)[C@H](CC(N)=O)NC(=O)[C@H](CC(=O)O)NC(=O)[C@@H](NC(=O)[C@H](Cc1ccccc1)NC(=O)[C@@H](NC(=O)[C@H](C)NC(=O)[C@H](CC(=O)O)NC(=O)[C@H](CO)NC(=O)[C@@H](N)Cc1c[nH]cn1)C(C)C)[C@@H](C)O)[C@@H](C)O)C(=O)N[C@@H](C)C(=O)N[C@H](C(=O)N[C@@H](CCCCN)C(=O)N[C@@H](CCCCN)C(=O)N[C@@H](Cc1ccc(O)cc1)C(=O)N[C@@H](CC(C)C)C(=O)N[C@@H](CC(N)=O)C(=O)N[C@@H](CO)C(=O)N[C@H](C(=O)N[C@@H](CC(C)C)C(=O)N[C@H](C(N)=O)[C@@H](C)O)C(C)C)C(C)C [(Lys^12, Lys^14, Nle^17, Val^26, Thn^28, (Lys^12, Lys^14, Nle^17, Val^26, Thr^28)VIP] (HELM PEPTIDE1{H.S.D.A.V.F.T.D.N.Y.T.K.L.K.K.Q.[Nle].A.V.K.K.Y.L.N.S.V.L.T.[am]}$$$$V2.0) | 143%
4.8e-09 M | CCCC[C@H](NC(=O)[C@H](CCC(N)=O)NC(=O)[C@H](CCCCN)NC(=O)[C@H](CCCNC(=N)N)NC(=O)[C@H](CC(C)C)NC(=O)[C@H](CCCNC(=N)N)NC(=O)[C@@H](NC(=O)[C@H](Cc1ccc(O)cc1)NC(=O)[C@H](CC(N)=O)NC(=O)[C@H](CC(=O)O)NC(=O)[C@@H](NC(=O)[C@H](Cc1ccccc1)NC(=O)[C@@H](NC(=O)[C@H](C)NC(=O)[C@H](CC(=O)O)NC(=O)[C@H](CO)NC(=O)[C@@H](N)Cc1c[nH]cn1)C(C)C)[C@@H](C)O)[C@@H](C)O)C(=O)N[C@@H](C)C(=O)N[C@H](C(=O)N[C@@H](CCCCN)C(=O)N[C@@H](CCCCN)C(=O)N[C@@H](Cc1ccc(O)cc1)C(=O)N[C@@H](CC(C)C)C(=O)N[C@@H](CC(N)=O)C(=O)N[C@@H](CO)C(=O)N[C@H](C(=O)N[C@@H](CC(C)C)C(=O)N[C@H](C(N)=O)[C@@H](C)O)C(C)C)C(C)C [(Nle^17, Val^26, Thr^28)--VIP, (Nle^17, Val^26, Thr^28)VIP] (HELM PEPTIDE1{H.S.D.A.V.F.T.D.N.Y.T.R.L.R.K.Q.[Nle].A.V.K.K.Y.L.N.S.V.L.T.[am]}$$$$V2.0) | 208%
5.8e-09 M | CCCC[C@H](NC(=O)[C@H](CCC(N)=O)NC(=O)[C@H](CCCCN)NC(=O)[C@H](CCCCN)NC(=O)[C@H](CC(C)C)NC(=O)[C@H](CCCNC(=N)N)NC(=O)[C@@H](NC(=O)[C@H](Cc1ccc(O)cc1)NC(=O)[C@H](CC(N)=O)NC(=O)[C@H](CC(=O)O)NC(=O)[C@@H](NC(=O)[C@H](Cc1ccccc1)NC(=O)[C@@H](NC(=O)[C@H](C)NC(=O)[C@H](CC(=O)O)NC(=O)[C@H](CO)NC(=O)[C@@H](N)Cc1c[nH]cn1)C(C)C)[C@@H](C)O)[C@@H](C)O)C(=O)N[C@@H](C)C(=O)N[C@H](C(=O)N[C@@H](CCCCN)C(=O)N[C@@H](CCCCN)C(=O)N[C@@H](Cc1ccc(O)cc1)C(=O)N[C@@H](CC(C)C)C(=O)N[C@@H](CC(N)=O)C(=O)N[C@@H](CO)C(=O)N[C@H](C(=O)N[C@@H](CC(C)C)C(=O)N[C@@H](CC(N)=O)C(N)=O)[C@@H](C)CC)C(C)C [(Lys^14, Nle^17)--VIP, (Lys^14, Nle^17)VIP] (HELM PEPTIDE1{H.S.D.A.V.F.T.D.N.Y.T.R.L.K.K.Q.[Nle].A.V.K.K.Y.L.N.S.I.L.N.[am]}$$$$V2.0) | 172%
